Measured values reported in PubChem BioAssay (NCI).
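Interpolation was linear, between the two tested concentrations surrounding the appropriate level; five concentrations were tested over 48 hours in 96-well plates. The concentration for full growth arrest is given as TGI.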

Key:
Assay in all cases: growth of human tumour cells (NCI), 48 h
HOP-92 NSCLC = system: HOP-92 NSCLC
A549 NSCLC = system: A549 NSCLC
U251 CNS = system: U251 CNS
BT-549 breast = system: BT-549 breast
OVCAR-4 ovarian = system: OVCAR-4 ovarian
CAKI-1 renal = system: CAKI-1 renal
SR leukemia = system: SR leukemia
SF-295 CNS = system: SF-295 CNS
HS 578T breast = system: HS 578T breast
HCT-116 colon = system: HCT-116 colon
MCF7 breast = system: MCF7 breast
HL-60(TB) leukemia = system: HL-60(TB) leukemia
NCI-H226 lung = system: NCI-H226 lung
SF-268 CNS = system: SF-268 CNS
786-0 renal = system: 786-0 renal
HT29 colon = system: HT29 colon
HCT-15 colon = system: HCT-15 colon
UACC-62 melanoma = system: UACC-62 melanoma
NCI/ADR-RES ovarian = system: NCI/ADR-RES ovarian

SMILES | TGI (HOP-92 NSCLC) [µM] | TGI (A549 NSCLC) [µM] | TGI (U251 CNS) [µM] | TGI (BT-549 breast) [µM] | TGI (OVCAR-4 ovarian) [µM] | TGI (CAKI-1 renal) [µM] | TGI (SR leukemia) [µM] | TGI (SF-295 CNS) [µM] | TGI (HS 578T breast) [µM] | TGI (HCT-116 colon) [µM] | TGI (MCF7 breast) [µM] | TGI (HL-60(TB) leukemia) [µM] | TGI (NCI-H226 lung) [µM] | TGI (SF-268 CNS) [µM] | TGI (786-0 renal) [µM] | TGI (HT29 colon) [µM] | TGI (HCT-15 colon) [µM] | TGI (UACC-62 melanoma) [µM] | TGI (NCI/ADR-RES ovarian) [µM]
Cc1cc(C)c2c(c1)C/C(=C\c1ccccc1C(=O)O)C2=O | > 100 | > 100 | > 100 | 97.8 | > 100 | > 100 | > 100 | > 100 | > 100 | > 100 | > 100 | > 100 | > 100 | > 100 | > 100 | > 100 | > 100 |  | 
Cc1cn(C2CC(O)C(CO[Si](C)(C)C(C)(C)C)OC2OC(C)C)c(=O)[nH]c1=O (stereo unspecified) | 79.4 | > 100 | > 100 | > 100 | > 100 | > 100 | 62.4 | > 100 | > 100 | 31.3 | 58.3 |  | > 100 | > 100 | 31.6 | 44.1 | > 100 | > 100 | > 100
CN1CCc2c(sc3ncn(C)c(=N)c23)C1 | > 100 | > 100 | > 100 | > 100 | > 100 | > 100 |  | > 100 | > 100 | > 100 | > 100 | > 100 | > 100 | > 100 | > 100 | > 100 | > 100 | > 100 | > 100
[N-]=[N+]=Nc1cc(=O)n2c3c(cccc13)CCC2 | > 100 | > 100 | > 100 | > 100 | > 100 |  | > 100 | > 100 | > 100 | > 100 | > 100 | > 100 | > 100 | > 100 | > 100 | > 100 | > 100 | > 100 | > 100
Cc1nc2ccc(NC(=S)Nc3ccccc3)cc2c(=O)n1-c1ccccc1 |  |  | > 100 | > 100 | > 100 | > 100 | > 100 | > 100 | > 100 | > 100 | > 100 | > 100 | > 100 | > 100 | > 100 | > 100 | > 100 | > 100 | > 100
CC1(C)CC(=O)C(C=NC(=O)c2ccncc2)=C(O)C1 | > 100 | > 100 | > 100 | > 100 | > 100 | > 100 |  | > 100 | > 100 | > 100 | > 100 | > 100 | > 100 | > 100 | > 100 | > 100 | > 100 | > 100 | > 100
COc1ccc(-c2nc(-c3cc4c(ccc5ccccc54)oc3=O)cs2)cc1 | > 100 | > 100 |  | > 100 | > 100 | > 100 | > 100 | > 100 | > 100 | > 100 | > 100 | > 100 | > 100 | > 100 | 82 | > 100 | > 100 | > 100 | 
CN(C)CC1CCC/C(=C\c2ccc(Cl)cc2)C1=O (stereo unspecified) | 10.5 | 32.4 | 9.08 | 3.45 | 8.94 | 3.72 | > 100 | 29.2 | 12.3 | 3.55 | 3.38 |  | 28.8 | 8.33 | 3.22 | > 32.7 | 4.86 | 4.5 | 18.9
O=S1(=O)Cc2ccc3c4c2-c2c(ccc5ccc(c-4c25)CS(=O)(=O)C3)C1 | > 100 | > 100 | > 100 | > 100 | > 100 |  | 69 | > 100 | > 100 | > 100 | > 100 | > 100 | > 100 | > 100 | > 100 | > 100 | > 100 | > 100 | > 100
CN(C)CCNC(=O)c1ccc2nc3c(nc2c1)C(=O)c1ccccc1-3 | > 100 | > 100 | 71.5 | 41.3 | > 100 | > 100 | 54.7 | > 100 | > 100 | > 100 | > 100 | 38.2 |  | > 100 | > 100 | 81.5 | > 100 | > 100 | 
